The text below walks through data of paper PMC7190706, “A Self-Assembling Lipidic Peptide and Selective Partial V2 Receptor Agonist Inhibits Urine Production” (Scientific Reports, 2020).

pEC50: −log10 of the molar value.

Series [1] can be described thus: Plasma stability in 30% rat plasma, HPLC. In kind it is in vitro ADME. Particulars: 37 °C.
Procedure: The plasma stability of METx was evaluated prior to an in vivo study. Blood was collected from male Sprague Dawley rats (n = 3, 200–250 g) into a vacutainer coated with ethylene diamine tetra-acetic acid (EDTA) and kept on ice (4 °C) until the plasma could be separated by centrifugation (10 min at 2000g and 4 °C, Hermle z323k centrifuge, HERMLE Labortechnik, Germany). The separated rat plasma was stored at −20 °C until required. On the day of the experiment, the plasma was thawed just prior to the experiment and diluted to 30% v/v using NaCl (0.9%). METx (7.2 × 10^−4M, 50 μL) was added to the diluted plasma (30% v/v, 450μL) that had been allowed to warm for 30 minutes at 37 °C either as a solution in dimethylsulfoxide or as a GCPQ nanoparticle formulation dispersed in water. The formulations and free drug were incubated at 37 °C with shaking for a maximum of 4 hours. At regular time intervals aliquots (50μL) were removed and mixed with dimethylformamide (150μL) to dissolve the METx and precipitate the plasma proteins. Samples were then immediately vortexed and centrifuged for 10 minutes at 13,000 rpm (MSE micro centaur centrifuge, MSE, UK). The supernatant (100μL) was collected and 40 μL was analysed using a reverse phase high performance liquid chromatography (HPLC) method. HPLC analyses was performed using an Agilent 1200 HPLC system (Agilent Technologies, UK) equipped with a quaternary pump, degasser, autosampler and a UV detector. Samples were chromatographed over a reverse phase column: Phenomenex Onyx Monolithic C18 column (5μm, 4.6 ×100 mm, Phenomenex, UK) connected in series with a guard column (5μm, 4.6 ×10 mm). The column temperature was kept constant at 35 °C. Separation was performed using an acetonitrile, water mobile phase gradient method (Table 3 – Supplementary Information) at a flow rate of 1.5 mL per minute, with detection at a wavelength of 280 nm.
The next series addresses T1, OT receptor (Rattus norvegicus, UniProt P70536).
T1 construct: OT receptors from rat uterine strips for our receptor activity assays; from tissue; host or cells: uterine strips of female Wistar rats
T1 sequence (P70536 1-388): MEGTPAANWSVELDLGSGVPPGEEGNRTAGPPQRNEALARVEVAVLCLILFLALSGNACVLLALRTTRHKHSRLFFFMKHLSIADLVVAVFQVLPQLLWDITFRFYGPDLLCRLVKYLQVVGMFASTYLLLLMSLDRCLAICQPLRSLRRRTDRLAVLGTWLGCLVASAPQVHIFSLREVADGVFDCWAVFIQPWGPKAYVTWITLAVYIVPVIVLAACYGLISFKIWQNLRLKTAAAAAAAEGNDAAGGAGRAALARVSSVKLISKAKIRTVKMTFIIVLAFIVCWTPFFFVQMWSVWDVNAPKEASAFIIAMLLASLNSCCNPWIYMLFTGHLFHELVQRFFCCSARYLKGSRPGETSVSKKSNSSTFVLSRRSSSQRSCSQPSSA
In words: OT induced contractions of isolated uterine strips (organ bath). Particulars: for 1/Rmax of double reciprocal plot (1/R vs 1/[OT]): Rmax = maximum contractile response in cm. The text has this: The uterus was excised and dissected into longitudinal strips (0.5 ×1.3–1.4 cm) from the anti-mesometrial side of the mid-portion of horns which contained implantation sites.
Only one strip from each animal was used. The uterine strip was tied at the bottom end to a fixed metal hook and at the top end to a force displacement transducer (Harvard Instruments, Kent, UK) using a cotton thread. The force displacement transducer was coupled to an amplifier driving a direct writing oscillograph (Universal Oscillograph, Harvard, Kent, UK). A cumulative dose procedure was used and isotonic contractions recorded.
DMF was added as DMF had been used to solubilise METx. […] The mean peak amplitude (MPA) was calculated from Eq. 1.1 MPA=ΣPH/n where PH = peak heights obtained within the 10 minute period immediately after addition of METx, OT or dimethylformamide and n = number of peaks within the same 10 minute period. The frequency of isotonic contractions was also evaluated during the 10 minute period immediately after the addition of METx, OT or dimethylformamide.
The organ bath was not washed out until a maximal response was reached. The MPA was calculated as shown in Equation 1, except that the recordings were done after the addition of each dose of OT and the MPA was calculated over a 5 minute period. To quantify the effect of METx on OT induced contractions, METx (final bath concentration = 0.1, 0.3 or 0.6 µM) was added to the organ bath prior to the addition of OT (Table 2 – Supplementary Information). […] Results were plotted as a percentage of the maximum contraction obtained with KCl against concentration. A double reciprocal plot was used to assess the nature of the receptor antagonism observed.
(1 picture or pasted object on this page, not shown here)

Series [2] is described as follows: Spontaneously voided urine volume and osmolality after intravenous injection in healthy rats. The following applies: METx (5: 1) nanoparticle formulation, rat. The series is classed as in vivo. The procedure:
Male Sprague Dawley rats (220–250 g) were housed five per cage in an air conditioned unit maintained at 20–22 °C and 50–60% humidity, with lighting controlled on a twelve-hour cycle. The lights were switched on at 07:00 and off at 19:00. Animals were allowed free access to standard rodent chow and water. Before experimentation, animals were habituated for 7 days within the unit. Prior to testing animals were acclimatised to the procedure room for 1 hour. Animals were also acclimatised to the metabolic cages for 20 minutes per day for 5 days before the day of experiment. Animals were randomly assigned into one of four groups; untreated, and animals receiving an intravenous injection of 10, 20 or 40 mg kg^−1 of METx as a GCPQ, METx (5: 1) nanoparticle formulation (n = 3) in a dose volume of 0.9 mL. The formulations were freshly prepared on the morning of the experiment as described above and the pH of the formulation adjusted to pH = 7 using sodium hydroxide (1 M). After receiving their METx formulations, animals were placed within individual metabolic cages (Techniplast, Italy) with access to water. Spontaneously voided urine was collected for 4 hours. Urine osmolality was determined by freezing point depression using a Type 5r osmometer (Loser, Germany).

Series [3] has as its system spontaneous uterine contractions. In words: Spontaneous contractions of isolated uterine strips (organ bath). More on the design: species or system rat. Particulars: METx 41 nM. How it is done: Female Wistar rats (203–225 g) were killed with CO2 on the day of the experiments. The uterus was excised and dissected into longitudinal strips (0.5 ×1.3–1.4 cm) from the anti-mesometrial side of the mid-portion of horns which contained implantation sites.
The uterine strips were suspended in an organ bath that contained physiological salt solution (PSS, 25 ml: 116 mM NaCl, 4.6 mM KCl, 1.16 mM NaH2PO4.H2O, 1.16 mM MgSO4.7H2O, 21.9 mM NaHCO3, 1.8 mM CaCl2.2H2O, 11.6 mM dextrose, 0.03 mM CaNa2EDTA, pH = […]). The water-jacketed bath was maintained at 36 °C and aerated with a mixture of 95% O2 and 5% CO2. Only one strip from each animal was used. The uterine strip was tied at the bottom end to a fixed metal hook and at the top end to a force displacement transducer (Harvard Instruments, Kent, UK) using a cotton thread. The force displacement transducer was coupled to an amplifier driving a direct writing oscillograph (Universal Oscillograph, Harvard, Kent, UK). A cumulative dose procedure was used and isotonic contractions recorded.
To quantify the effect of METx on spontaneous uterine contractions the myometrial strips from the same uterus as above, but from the opposite horn, were equilibrated for 60 min within the organ bath and then a single dose of DMF applied followed by doses of METx as shown in Table 1 in the Supplementary Information. […]

The target in a further series is T2, V2 receptor (Canis lupus familiaris, UniProt O77808).
T2 construct: MDCK cells expressing the V2 receptor were cultured; endogenous in cells; host or cells: MDCK cells
In words: V2 receptor agonism, cAMP accumulation in MDCK cells (cAMP EIA). The series is classed as cell-based, dog.

A further series deals with T3, V1a receptor (Rattus norvegicus, UniProt P30560).
T3 construct: V1a receptors from A7r5 cells; endogenous in cells; host or cells: A7r5 rat smooth muscle cells
The experiment in a line: V1a receptor agonism, IP-1 ELISA in A7r5 cells. In kind it is cell-based. From the text:
microplate reader. […] The
hours. […] The cells were
manufacturer’s instructions.
For orientation: In an ELISA, binding on a coated surface is turned into a signal by an enzyme label.

The test system of the next series is MDCK cell line. Particulars: read-out: EC50 functional activity (fluid secretion); cited from earlier work.
The subject of another series is human V1a receptor. More on the design: method as in PMID 22375852. Particulars: cited from earlier work.

T2 sequence (O77808 whole entry): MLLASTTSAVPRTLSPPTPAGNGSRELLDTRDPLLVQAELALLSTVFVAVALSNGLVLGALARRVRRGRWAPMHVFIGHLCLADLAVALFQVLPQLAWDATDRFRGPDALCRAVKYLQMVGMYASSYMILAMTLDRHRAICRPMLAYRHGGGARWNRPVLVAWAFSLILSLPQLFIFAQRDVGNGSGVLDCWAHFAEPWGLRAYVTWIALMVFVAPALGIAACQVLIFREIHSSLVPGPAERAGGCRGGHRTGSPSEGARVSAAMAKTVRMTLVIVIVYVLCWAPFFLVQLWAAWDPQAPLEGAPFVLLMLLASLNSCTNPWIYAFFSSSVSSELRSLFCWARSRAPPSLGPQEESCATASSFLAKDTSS
T3 sequence (P30560 whole entry): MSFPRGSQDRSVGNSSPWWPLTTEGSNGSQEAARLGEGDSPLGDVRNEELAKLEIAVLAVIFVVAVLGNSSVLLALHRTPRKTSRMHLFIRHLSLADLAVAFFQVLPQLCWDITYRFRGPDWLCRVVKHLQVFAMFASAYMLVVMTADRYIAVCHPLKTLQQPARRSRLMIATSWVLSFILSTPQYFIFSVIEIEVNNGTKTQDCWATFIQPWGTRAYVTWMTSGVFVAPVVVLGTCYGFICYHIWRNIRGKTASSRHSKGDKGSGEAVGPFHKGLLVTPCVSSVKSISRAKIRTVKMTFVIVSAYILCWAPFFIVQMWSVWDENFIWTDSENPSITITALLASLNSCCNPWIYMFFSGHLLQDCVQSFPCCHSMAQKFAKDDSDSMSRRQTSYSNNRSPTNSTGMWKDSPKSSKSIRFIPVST
Procedure for V2 receptor: We thus used the V2 receptor from MDCK cells, V1a receptors from A7r5 cells and OT receptors from rat uterine strips for our receptor activity assays.
MDCK cells expressing the V2 receptor were cultured in Eagle’s Essential Minimum Medium (EMEM) supplemented with foetal bovine serum (FBS, 10% v/v), L-Glutamine (1% v/v) and non-essential amino acids (NEAA 1% v/v). […] The cell culture medium was changed every 2 days. Cells were sub-cultured every 7 days or upon reaching confluence using trypsin/ ethylene diamine tetraacetic acid (EDTA) (0.25%w/v trypsin/ 0.01%w/v EDTA in phosphate buffered saline, 3 mL) solution to dissociate the cells and the cells reseeded at one third of their original density.
The cell culture media was changed daily. On the day of the experiment, the cells were washed with Dulbecco’s phosphate-buffered saline (DPBS) without calcium and magnesium and incubated for 1 hour in cell culture medium with isobutyl methylxanthine (IBMX, 0.5 mM). IBMX is a phosphodiesterase inhibitor that prevents the breakdown of cAMP within the cells; allowing for total quantification of the analyte cAMP. […]
for total quantification of the analyte cAMP. […]
was quantified from the cell lysate (0.1 mL) using a competition based EIA as per the […]
acid (0.1 M, 0.1 mL) and the plates read at 450 nm using an ELx808 microplate reader […]
concentration of cAMP per well was determined from equation 1. […]

Consider `CCCCCCCCCCCCCCCC(=O)NCCCC[C@H](NC(=O)CNC(=O)[C@H](CC(C)C)NC(=O)[C@@H]1CCCN1C(=O)[C@@H]1CSSC[C@H](N)C(=O)N[C@@H](Cc2ccc(O)cc2)C(=O)N[C@@H]([C@@H](C)CC)C(=O)N[C@@H](CCC(N)=O)C(=O)N[C@@H](CC(N)=O)C(=O)N1)C(=O)O` [METx], for which the order of stability result in series [1] (30% rat plasma) is recorded as “METx, Polymer (1: 5)> METx, Polymer (1: 7)> METx> METx, Polymer (1: 4)”. For the same compound, the “degradation over the 4 hour incubation” value in series [1] (30% rat plasma, 4 hour) was “completely degraded”. In addition, the “time to complete degradation” value in series [1] (30% v/v rat plasma) was at most 60 min. Besides, the “OT antagonist concentration relative to EC50 at the V2 receptor” value on OT receptor (300 nM versus V2 EC50) came out at 100 fold. The “effect on OT induced contractions” value at OT receptor (100 nm of inhibitor) is on record as “not effective in reducing OT induced contractions”. The “shift of the OT dose response curve to the right” value on OT receptor (METx 300 nM and 600 nM, amplitude of OT induced contractions, p < 0.05) was “two orders of magnitude”. The “nature of antagonism at the OT receptor” value at OT receptor (from double reciprocal plots) is recorded as “non-competitive antagonist”. Also, the figures for the “1/Rmax of double reciprocal plot (1/R vs 1/[OT])” value on OT receptor (inhibitor 100 nM), at OT receptor (inhibitor 300 nM) and at OT receptor (inhibitor 600 nM) were 0.48, 0.97 and 1.33, respectively. Further, the “concentration at which antagonism at the OT receptor starts” value on OT receptor (uterine strips) worked out at 300 nM. In series [2] (20 mg kg^−1 intravenous as GCPQ), the “osmolality of the urine” value is given as “increased significantly”. Also, the urine production entry in series [2] (40 mg kg^−1 intravenous as GCPQ, 4 hour observation period) is “no urine at all”. For the same compound, the “spontaneously voided urine volume, dose dependence” value in series [2] (10, 20 or 40 mg kg^−1 intravenous as GCPQ, 4 hours) was “dose correlated reduction in urine production”. The “effect on spontaneous uterine contractions” value in series [3] is “no effect”. Also, the “concentration at which the maximal cAMP response was seen” value on V2 receptor is on record as 10 nM.

As to `CC[C@H](C)[C@@H]1NC(=O)[C@H](Cc2ccc(O)cc2)NC(=O)[C@@H](N)CSSC[C@@H](C(=O)N2CCC[C@H]2C(=O)N[C@@H](CC(C)C)C(=O)NCC(N)=O)NC(=O)[C@H](CC(N)=O)NC(=O)[C@H](CCC(N)=O)NC1=O` [OT, oxytocin, reference compound], on OT receptor, the pEC50 (as a rule, the EC50 on a negative log10 scale, so that one unit is a factor of ten) is 10.09.

In the case of desmopressin, the “agonism at the V1a receptor” value at V1a receptor was “not an agonist at the V1a receptor”. Besides, the negative-log EC50 (pEC50) with MDCK cell line was 9.15. Besides, in the series on human V1a receptor, the “affinity for the human V1a receptor” value is on record as “does not show any affinity”.

Turning to `N=C(N)NCCC[C@H](NC(=O)[C@@H]1CCCN1C(=O)[C@@H]1CSSC[C@H](N)C(=O)N[C@@H](Cc2ccc(O)cc2)C(=O)N[C@@H](Cc2ccccc2)C(=O)N[C@@H](CCC(N)=O)C(=O)N[C@@H](CC(N)=O)C(=O)N1)C(=O)NCC(N)=O` [AVP, arginine vasopressin, reference compound], the negative logarithm of the EC50 (pEC50) with MDCK cell line is 9.44. Moreover, the “concentration at which the maximal cAMP response was seen” value at V2 receptor is recorded as 100 nM.
